In article PMC7341485 (Chemical research in toxicology, 2019):
Entries after “also recorded” stand apart in the source; their conditions may differ. Where a name gives a salt, the structure may show the parent alone. Read-outs that look alike come from different tables or passages of the source.

Key:
[1] = system: iPSC-derived cortical glutamatergic neurons; assay: Neurite outgrowth assay in iPSC-derived neurons; type: cell-based, human; conditions: for IC50: Homo sapiens, Neuron, 24 h, read-out: IC50 of neurite outgrowth inhibition
[2] = system: TGFβ/SMAD signaling (SMAD2/3/4 complex), SBE-bla HEK 293T cells; assay: SBE-bla antagonist assay; type: cell-based, human; conditions: for SBE Antagonist Efficacy: activity %, TGFβ1 only = 0, DMSO = -100
[3] = system: SHH pathway, Gli1-luc NIH/3T3 cells; assay: SHH-luc reporter gene assay; type: cell-based
[4] = system: TGFβ, WNT, RAR and SHH pathways; assay: Profile across developmental pathways; type: cell-based; conditions: sodium dimethyldithiocarbamate at 10 μM
[5] = system: RAR pathway, RARE-luc C3RL4 cells; assay: RAR-luc reporter gene assay; type: cell-based; conditions: 6 h
[6] = system: WNT pathway, TCF/LEF-luc HEK293 cells; assay: WNT-luc reporter gene assay; type: cell-based, human
[7] = system: SMAD2/3/4 signaling, SBE-bla HEK 293T cells; assay: SBE-bla assay, activation by native TGFR ligands; type: cell-based, human; conditions: Figure 2A
[8] = Homo sapiens, HEK-293T, read-out: IC50 in SBE-bla assay, primary screening

Compound: Nc1ncn([C@@H]2O[C@H](CO)[C@@H](O)[C@H]2O)c(=O)n1 [5-Azacitidine]
- inhibition of neurite outgrowth, in words ([1]; 24 h treatment, Figure 5D): inhibited neurite outgrowth

Compound: CN1C(=O)N(c2ccccc2Br)Cc2cnc(Nc3ccc4c(c3)OCC(CO)O4)nc21 (stereo not drawn) [PharmaGSID_48519]
- inhibition of neurite outgrowth, in words [1]: did not inhibit neurite outgrowth; also recorded: didn’t inhibit neurite outgrowth

Compound: CCCCN(CCCC)C(=S)[S-].[Na+] [Sodium dibutylcarbamodithioate]
- SBE Antagonist IC50 ([2]; TGFβ1-induced SBE-bla activity, HEK 293T, 5 h, Tables 2 and 3): Inactive
- SBE Antagonist Efficacy [2]: Inactive
- SHH Antagonist Efficacy ([3]; conditioned medium, 24 h): Inactive
- SHH Antagonist IC50 ([3]; conditioned medium, 24 h): Inactive
- inhibition of developmental pathways, in words [4]: inactive
- RAR Antagonist Efficacy ([5]; retinol stimulated): Inactive
- RAR Antagonist IC50 ([5]; retinol stimulated): Inactive
- WNT Antagonist Efficacy ([6]; WNT-3a stimulated, 24 h): Inactive
- WNT Antagonist IC50 ([6]; WNT-3a stimulated, 24 h): Inactive

Compound: CCN(CC)C(=S)S [Sodium diethyldithiocarbamate]
- IC50 ([2]; Homo sapiens, HEK-293T, 5 h, read-out: SBE Antagonist IC50): 11.5 µM
- SBE Antagonist Efficacy [2]: −58.53%
- IC50 ([3]; Mus musculus, NIH3T3, 24 h, read-out: SHH Antagonist IC50): 8.92 µM
- SHH Antagonist Efficacy ([3]; conditioned medium, 24 h): −96.63%
- IC50 ([5]; read-out: RAR Antagonist IC50): 15.3 µM
- RAR Antagonist Efficacy ([5]; retinol stimulated): −113.16%
- IC50 ([6]; Homo sapiens, HEK293, 24 h, read-out: WNT Antagonist IC50): 3.69 µM
- WNT Antagonist Efficacy ([6]; WNT-3a stimulated, 24 h): −74.76%

Compound: CN(C)C(=S)SSC(=S)N(C)C [Thiram]
- IC50 [1]: 0.1 µM

Compound: CC(C)C[C@H](NC(=O)[C@H](Cc1ccccc1)NC(=O)c1cnccn1)B(O)O [bortezomib]
- inhibition of neurite outgrowth, in words ([1]; 24 h treatment, Figure 5D): inhibited neurite outgrowth

Compound: C=CC(=O)Nc1cc2c(Nc3ccc(F)c(Cl)c3)ncnc2cc1OCCCN1CCOCC1 [canertinib]
- inhibition of neurite outgrowth, in words ([1]; 24 h treatment, Figure 5D): inhibited neurite outgrowth

Compound: CN(C)C(=S)[S-].CN(C)C(=S)[S-].[Cu+2] [copper dimethyl dithiocarbamates]
- IC50 ([2]; read-out: IC50 in SBE-bla assay, DTC cluster k35.18, Figure 3B): 1.62 µM

Compound: Cc1nc(Nc2ncc(C(=O)Nc3c(C)cccc3Cl)s2)cc(N2CCN(CCO)CC2)n1 [dasatinib]
- IC50 [2, 8]: 0.26 µM
- inhibition of neurite outgrowth, in words ([1]; 24 h treatment, Figure 5D): did not inhibit neurite outgrowth; also recorded: didn’t inhibit neurite outgrowth

Compound: S=C(SSC(=S)N1CCCCC1)N1CCCCC1 [dicyclopentamethylenethiuram, dicyclopentamethylenethiuram disulfide]
- IC50 ([2]; Homo sapiens, HEK-293T, read-out: IC50 in SBE-bla assay, DTC cluster k35.18): 0.58 µM
- IC50 [1]: 0.82 µM

Compound: CCN(CC)C(=S)SSC(=S)N(CC)CC [disulfiram]
- IC50 [1]: 0.18 µM

Compound: CN1CC[C@H](c2c(O)cc(O)c3c(=O)cc(-c4ccccc4Cl)oc23)[C@H](O)C1 [flavopiridol hydrochloride, reference compound]
- IC50 [2, 8]: 0.02 µM
- inhibition of neurite outgrowth, in words ([1]; 24 h treatment, Figure 5D): inhibited neurite outgrowth

Compound: CC(=O)[C@]1(O)Cc2c(O)c3c(c(O)c2[C@@H](O[C@H]2C[C@H](N)[C@H](O)[C@H](C)O2)C1)C(=O)c1ccccc1C3=O [idarubicin hydrochloride]
- inhibition of neurite outgrowth, in words ([1]; 24 h treatment, Figure 5D): inhibited neurite outgrowth

Compound: COc1cccc2c1C(=O)c1c(O)c3c(c(O)c1C2=O)C[C@@](O)(C(=O)CO)C[C@@H]3O[C@H]1C[C@H](N2CCO[C@H](OC)C2)[C@H](O)[C@H](C)O1 [nemorubicin]
- inhibition of neurite outgrowth, in words [1]: inhibited neurite outgrowth

Compound: [F][Sn]([c]1ccccc1)([c]1ccccc1)[c]1ccccc1 [triphenyltin fluoride]
- fold less cytotoxic in SBE-bla HEK 293T cells than in NSCs (SBE-bla HEK 293T cells): 10 fold

Compound: CC[C@]1(O)C[C@@H]2CN(CCc3c([nH]c4ccccc34)[C@@](C(=O)OC)(c3cc4c(cc3OC)N(C)[C@H]3[C@@](O)(C(=O)OC)[C@H](OC(C)=O)[C@]5(CC)C=CCN6CC[C@]43[C@@H]65)C2)C1 [vinblastine sulfate]
- inhibition of neurite outgrowth, in words ([1]; 24 h treatment, Figure 5D): inhibited neurite outgrowth

Compound: TGFβ1: native TGFR ligand, human TGFβ1
- EC50 of activation of SBE-bla activity [7]: 0.11 ng/mL

Compound: TGFβ2: native TGFR ligand
- EC50 of activation of SBE-bla activity [7]: 0.11 ng/mL

Compound: TGFβ3: native TGFR ligand
- EC50 of activation of SBE-bla activity [7]: 0.11 ng/mL

Compound: dibutyltin
- fold less cytotoxic in SBE-bla HEK 293T cells than in NSCs (SBE-bla HEK 293T cells): 10 fold

Compound: phenylmercuric acetate
- fold less cytotoxic in SBE-bla HEK 293T cells than in NSCs (SBE-bla HEK 293T cells): 10 fold
